From patent US9845487B2, “Selective chromogenic medium” (SZEGEDI TUDOMÁNYEGYETEM, priority 2013, dated 2017)

How the values were obtained:
[1] = tested on: species causing the degradation of wine; test: growth of wine-degrading yeasts on selective medium with cycloheximide; assay type: cell-based; conditions: in the concentration used by the inventors
Excerpt: (§1) The procedure requires no sterile laboratory conditions and only little attention is to be paid to ensure that the right sample is placed on the surface of the culture medium. The culture medium contains components easily available. In addition to components used for growth, the medium contains antibiotics inhibiting the growth of yeasts, e.g.—other culture media similar to selective Brettanomyces—cycloheximide as well. This antibiotic is used for the identification of different species in yeast diagnostics.
(§2) In the following examples, unless indicated otherwise, the following concentrations and compositions were applied. Composition of medium that was suitable for growing yeast cells was the following: 1% glucose, 0.67% “yeast nitrogen base”, 2% agar, which was made selectively by using 5 μg/ml cycloheximide as an antibiotics for blocking the growth of Saccharomyces strains. Azure-II-eosinate was used in a 30 μg/ml concentration.

[2] = tested on: Saccharomyces; test: growth of winemaking yeasts on selective medium with cycloheximide; assay type: cell-based; conditions: in the concentration used by the inventors
Excerpt: as §1, §2

C[C@@H]1C[C@@H]([C@H](O)CC2CC(=O)NC(=O)C2)C(=O)[C@@H](C)C1 [cycloheximide]
tolerance by wine-degrading yeast species [1]: still tolerated | growth inhibition of winemaking yeasts [2]: prevents the growth of most yeasts playing a role in wine-making
